Test results as given in patent US8173423B2, “Diagnosis and treatment of T-cell acute lymphoblastic leukemia” (VIB VZW, priority 2006, dated 2012).
Non-standard residues stand in square brackets, D forms with d. Residues, ends and D or L forms follow the SMILES beside them. *: point of attachment. Nle = CCCC[C@H](N)C(=O)O; Cbz = O=C(OCc1ccccc1)*

Tests used:
ALL-SIL cells [1] = experiment: Proliferation, viability and cell cycle of T-ALL cell line (viable cell count, FACS); type: cell-based, human; conditions: for proliferation: proliferation period of 3 days
Procedure: (§1) DND-41, HSB-2, RPMI-8402, ALL-SIL, MOLT-4, LOUCY, P12-ICHIKAWA, CCRF-CEM (DSMZ, Braunschweig, Germany) were cultured in RPMI-1640 supplemented with 20% fetal calf serum. The number or percentage of viable cells was counted with a Vi-cell XR cell viability analyzer (Beckman Coulter, Fullerton, Calif.). For differentiation experiments, cells were cultured during a period of 6 days and electroporated on the first day and again on the 4th day with 50 nM siRNA. MYB stealth select siRNAs were purchased from Invitrogen (Carlsbad, Calif.). […] Electroporation with a stealth siRNA directed against ERBB4 (Invitrogen, Carlsbad, Calif.), a gene not expressed in these cell lines, served as a control. […] For inhibition of NOTCH1, we treated the cell ines with 1 μM of Compound E (gamma-secretase inhibitor XXI, Calbiochem, San Diego, Calif.) or DMSO (control). The percentage proliferation was calculated by comparing the increase of the number of viable cells from treated cells to the increase of the number of viable cells treated with DMSO and electroporated with a control siRNA, and this for a proliferation period of 3 days.
(§2) Analysis of CD1a, CD3, CD4 and CD8 expression and cell cycle analysis was performed on 0.3-1×10^6 cells 6 days after the first electroporation with siRNA. We used the PE/CD1a, and the TriTEST CD4 FITC/CD8 PE/CD3 PerCP Reagent kit (Becton Dickinson, San Jose, Calif.) and the CycleTEST™ PLUS DNA Reagent Kit (Becton Dickinson). After staining, the cells were detected on a FACSCanto Flow Cytometer (Becton Dickinson) and the data were analyzed with the BD FACSDiva software (Becton Dickinson). Unstained cells and cells treated with ERBB4 siRNA were used as controls. Cell sorting was performed after staining of the cells with the TriTEST CD4/CD8/CD3 kit. Cells were separated into two fractions (differentiated and undifferentiated) using the FACSVantage SE system (Becton Dickinson).
(§3) Cell lines were electroporated every four days with 50-250 nM siRNA. MYB stealth select siRNAs (MYB-HSS106819) were purchased from Invitrogen (Carlsbad, Calif.).

RPMI-8402 cells [2] = experiment: as above; type: cell-based, human; conditions: for proliferation: proliferation period of 3 days
Procedure: as §1, §2, §3

MYB = experiment: Knockdown of MYB expression by siRNA electroporation, protein blot analysis; type: cell-based, human; conditions: among MYB stealth select siRNAs
Procedure: FIG. 1: Effect of knockdown of MYB expression on T-ALL cell lines. (a) Protein blot analysis showing that electroporation of three different MYB siRNAs in RPMI-8402 cells causes a decrease of MYB expression, compared with electroporation with no siRNA or control siRNA (ERBB4). […] Control cells were treated with dimethylsulfoxide or a control siRNA. Error bars indicate s.e.m.
DND-41, HSB-2, RPMI-8402, ALL-SIL, MOLT-4, LOUCY, P12-ICHIKAWA, CCRF-CEM (DSMZ, Braunschweig, Germany) were cultured in RPMI-1640 supplemented with 20% fetal calf serum. The number or percentage of viable cells was counted with a Vi-cell XR cell viability analyzer (Beckman Coulter, Fullerton, Calif.). For differentiation experiments, cells were cultured during a period of 6 days and electroporated on the first day and again on the 4th day with 50 nM siRNA. MYB stealth select siRNAs were purchased from Invitrogen (Carlsbad, Calif.). […] Electroporation with a stealth siRNA directed against ERBB4 (Invitrogen, Carlsbad, Calif.), a gene not expressed in these cell lines, served as a control. […] The percentage proliferation was calculated by comparing the increase of the number of viable cells from treated cells to the increase of the number of viable cells treated with DMSO and electroporated with a control siRNA, and this for a proliferation period of 3 days. […]

ALL-SIL cells [3] = experiment: Differentiation of T-ALL cell line after MYB knockdown (FACS of CD1a, CD3, CD4, CD8); type: cell-based, human
Procedure: as §1, §2

MOLT-4 cells = experiment: as above; type: cell-based, human
Procedure: as §1, §2

RPMI-8402 cells [4] = experiment: as above; type: cell-based, human
Procedure: as §1, §2

melanoma xenografts = conditions: Miele 2006; cited from earlier work
melanoma cell lines = conditions: Miele 2006; cited from earlier work
[5] = test system: Ras-transformed fibroblasts; conditions: Miele 2006; cited from earlier work
T-ALL cells = conditions: Miele 2006; cited from earlier work
MOLT-4 = conditions: reference 4; cited from earlier work
ALL-SIL = conditions: reference 4; cited from earlier work
RPMI-8402 = conditions: reference 4; cited from earlier work
[6] = siRNA electroporation and/or 1 μM Compound E, vs DMSO and control siRNA
[7] = 50 nM siRNA electroporated day 1 and day 4, 6 days
[8] = flow-sorted cells analysed 10 d later

With “MYB siRNA 1: MYB stealth select siRNA (Invitrogen), sequence 5′UAUAGUGUCUCUGAAUGGCUGCGGC (SEQ ID NO:1) with complementary strand SEQ ID NO:2 (chain 2 GCCGCAGCCAUUCAGAGACACUAUA; Invitrogen Stealth Select siRNA, chemistry not given here)” the cell cycle (ALL-SIL cells [1]; siRNA electroporation) was “only a limited effect”, the proliferation (ALL-SIL cells [1]; [6]) was “only a limited effect” and the “viability / cell survival” value (ALL-SIL cells [1]; [6]) was “only a limited effect”. For the same compound, the cell cycle (RPMI-8402 cells [2]; siRNA electroporation) was “only a limited effect”, the proliferation (RPMI-8402 cells [2]; [6]) was “only a limited effect” and the “viability / cell survival” value (RPMI-8402 cells [2]; [6]) was “only a limited effect”. The “efficiency of siRNA” value (MYB) was “most efficient”, the “differentiation (changes in expression of CD1a, CD3, CD4 or CD8 cell surface markers)” value (ALL-SIL cells [3]; [7]) was “results in the differentiation” and the reversibility of differentiation (ALL-SIL cells [3]; [8]) was “irreversible”. For the same compound, the “differentiation (changes in expression of CD1a, CD3, CD4 or CD8 cell surface markers)” value (MOLT-4 cells; [7]) was “results in the differentiation”, the reversibility of differentiation (MOLT-4 cells; [8]) was “irreversible” and the “differentiation (changes in expression of CD1a, CD3, CD4 or CD8 cell surface markers)” value (RPMI-8402 cells [4]; [7]) was “results in the differentiation”. The reversibility of differentiation (RPMI-8402 cells [4]; [8]) was “irreversible”.
In the case of `CCCC[C@@H](C=O)NC(=O)[C@H](CC(C)C)NC(=O)[C@H](CC(C)C)NC(=O)OCc1ccccc1` [z-Leu-leu-Nle-CHO] (Cbz-Leu-Leu-[Nle]-aldehyde), the apoptosis (melanoma xenografts) is listed as “induces apoptosis” and the apoptosis (melanoma cell lines) is listed as “induces apoptosis”.
In the case of `CCC(C)C(NC(=O)OCc1ccccc1)C(=O)NC(C=O)CC(C)C` (stereo not drawn) [cbz-IL-CHO] (Cbz-Ile-Leu-aldehyde; configuration not given here), the antineoplastic activity [5] is listed as “Notch-1—dependent antineoplastic activity”.
In the case of `C[C@H](NC(=O)Cc1cc(F)cc(F)c1)C(=O)N[C@H]1N=C(c2ccccc2)c2ccccc2N(C)C1=O` [Compound E, (S, S)-2-[2-(3,5-Difluorophenyl)-acetylamino]-N-(1-methyl-2-oxo-5-phenyl-2,3-dihydro-1H-benzo[e][1,4]diazepin-3-yl)-propionamide], the proliferation (ALL-SIL cells [1]; [6]) is listed as “inhibition of the proliferation”, the proliferation (RPMI-8402 cells [2]; [6]) is listed as “inhibition of the proliferation” and the growth (T-ALL cells) is listed as “causes growth arrest”. The “sensitivity to GSI treatment” value (MOLT-4) was “not sensitive”, the proliferation (ALL-SIL) was “inhibit the proliferation” and the proliferation (RPMI-8402) was “inhibit the proliferation”.
